These results are taken from patent US20260194528A1, “PROXIMITY-BASED LABELING OF BIOMOLECULAR CONDENSATE MICROENVIRONMENTS” (THE TRUSTEES OF PRINCETON UNIVERSITY, priority 2022, published 2026).

Common to all, as to type: cell-based
The subject of assay [1] is stress granule proteins. The assay is described as follows: ubiquitination of stress granule proteins during granule formation. Conditions: HEK243T stably expressing HaloTag-G3BP1, 2 μM TAK243, FIG. 6. As for the experimental part:
(§1) A protein-transition metal complex composite of FIG. 2 was prepared as follows. Cells (HEK243T stably expressing HaloTag-G3BP1) were seeded and grown to 95% confluency prior to labeling. The cells were incubated in DMEM media containing 5 μM of the with iridium catalyst of FIG. 2 for one hour. During this period, the iridium catalyst passes through the cell membranes and conjugates with the HaloTag-G3BP1 protein. The cells were then incubated in fresh DMEM media for one hour to remove or minimize noise from any unbound iridium catalyst.
(§2) A first portion of the Ir-catalyst loaded cells were subsequently transferred to DMEM media pre-dosed with 2 μM TAK243 and incubated for another hour. The remaining second portion (control) was dosed with the same volume of DMSO. The cells were stressed with […] NaAsO2 in DMEM for 30 minutes. Following stressing, the media was replaced with fresh DMEM for cell recovery at the indicated time. During the stressing period, the cells were dosed with protein labeling agent of 500 μM biotin-diazirine in the media 30 minutes prior to the individual time point of photolabeling. During photolabeling, the cells were subjected to 10 minutes of 450 nm blue light irradiation. FIG. 4 illustrates the foregoing testing protocol.
General proteomics preparation protocol was followed. 600 μg of total protein was loaded for streptavidin enrichment. […]

Assay [2] concerns stress granules. Kind of assay: stress granule disassembly after NaAsO2 stress. Conditions: HEK243T stably expressing HaloTag-G3BP1; 2 μM TAK243; stressed with 500 mM NaAsO2 for 30 minutes; FIG. 6. As for the experimental part:
as §1, §2

The test system of assay [3] is HECT E3 ligase. Kind of assay: effect of HECT E3 ligase inhibition or knockdown on stress granule disassembly. Conditions: HECT E3 ligase inhibition or siRNA knockdown; FIG. 10, FIG. 11. The text has this:
With this information provided by the interactome mapping, E3 ligase inhibitor Heclin was employed to determine any effects on HECT E3 ligase function relative to stress granule disassembly, as illustrated in FIG. 9.

Consider `NS(=O)(=O)OC[C@H]1C[C@@H](Nc2ccnc3cc(-c4cccc(SC(F)(F)F)c4)nn23)[C@H](O)[C@@H]1O` [TAK243], for which the protein ubiquitination entry in assay [1] was “undermined or inhibited”. The granule disassembly entry in assay [2] was “delayed”.
In the case of `CCc1ccc(C=CC(=O)Nc2ccc(C(C)=O)cc2)o1` [Heclin], in assay [3], the stress granule disassembly result is reported as “delays stress granule disassembly”.
